PubChem BioAssay (NCI)
Where “and” joins values, the source holds several entries; their conditions need not be identical. Equal entries are not always repeated.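 In this assay, cells in 96-well plates receive the compound at five concentrations for 48 hours. Endpoints are linearly interpolated between the surrounding concentrations. GI50 = concentration required for 50% inhibition of growth. TGI denotes the concentration required for complete inhibition of growth.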

Tests used:
Assay in all cases: NCI-60 cell line screen, 48 h
A498 renal = system: A498 renal
CAKI-1 renal = system: CAKI-1 renal
CCRF-CEM leukemia = system: CCRF-CEM leukemia
HCT-116 colon = system: HCT-116 colon
NCI-H23 lung = system: NCI-H23 lung
OVCAR-8 ovarian = system: OVCAR-8 ovarian
SF-295 CNS = system: SF-295 CNS
SK-MEL-2 melanoma = system: SK-MEL-2 melanoma
SNB-19 CNS = system: SNB-19 CNS
SW-620 colon = system: SW-620 colon

Compound	GI50 (A498 renal)	TGI (A498 renal)	GI50 (CAKI-1 renal)	TGI (CAKI-1 renal) [µM]	GI50 (CCRF-CEM leukemia)	TGI (CCRF-CEM leukemia) [µM]	GI50 (HCT-116 colon)	TGI (HCT-116 colon) [µM]	GI50 (NCI-H23 lung)	TGI (NCI-H23 lung) [µM]	GI50 (OVCAR-8 ovarian)	TGI (OVCAR-8 ovarian) [µM]	GI50 (SF-295 CNS)	TGI (SF-295 CNS) [µM]	GI50 (SK-MEL-2 melanoma) [µM]	TGI (SK-MEL-2 melanoma) [µM]	GI50 (SNB-19 CNS)	TGI (SNB-19 CNS) [µM]	GI50 (SW-620 colon)	TGI (SW-620 colon) [µM]
CCc1ccc(C2=C(O)C(=O)C(c3ccc(CC)cc3)=C(O)C2=O)cc1	1.74 µM	5.36 µM	1.92 µM	5.27	1.37 µM	5.72	2.24 µM	6	1.96 µM	5.23	2.95 µM	10.2	1.93 µM	6.7	1.18	3.35	2.17 µM	8.03	2.87 µM	10.4
CN(C)CCNC(=O)c1cc([N+](=O)[O-])cc2ccc(-c3ccccc3)nc12		14.4 µM		> 40.4		13.6		13.4		27.6		> 39.2		> 57.3		28.7		35.5		> 38.7
COC(=O)/C(=N/NC(C)(C)C)C(C(=O)C=C(C)C)C(=O)C(=O)Nc1ccc(Cl)cc1C (centres undefined)		> 100 µM		> 100		> 100		> 100		> 100		> 100		> 100		> 100		> 100		> 100
Nc1ccc2c(c1)[O][Sn]([c]1ccccc1)([c]1ccccc1)[O]C2=O	18 µM	31.9 µM	4.89 µM	10.5	1.92 µM	7.76	7.97 µM	15.7	2.76 µM	8.58	13.2 µM	28.2	6.38 µM	14.5	6.19	17.6	17.3 µM	31.3	2.93 µM	8.35
OC1CCC(Oc2cccc3cnc(Nc4ccc5nc[nH]c5c4)nc23)CC1 (centres undefined)	0.335 µM	0.866 µM	0.497 µM	21.5	0.282 µM	17.3	0.191 µM	12	0.21 µM	1.63	0.521 µM	43	0.429 µM	12	0.873	2.93	0.407 µM	49.6	0.407 µM	16.5
O=C1/C(=C\c2cccs2)Oc2ccccc21		> 100 µM		> 100		> 100		> 100		> 100		> 100		> 100		> 100		> 100		> 100
Cc1cc(O)cc(C)c1/C=C/c1cncc(C(=O)N(C)C)c1	> 25 µM	> 25 µM	> 25 µM	> 25	> 25 µM	> 25	> 25 µM	> 25	> 25 µM	> 25	> 25 µM	> 25	> 14.8 µM	> 25	> 25	> 25	> 25 µM	> 25	> 25 µM	> 25
N#C/C(=C(\O)C(=O)O)c1ccc(-c2cccc3ccccc23)cc1		> 100 µM		> 100		> 100		> 100		> 100		> 100		> 100		> 100		> 100		> 100
O=c1oc2c3ccc4ccccc4c3n(Cc3nc4ccccc4[nH]3)c2c2ccccc12		> 100 µM		> 100		> 100		> 100		> 100		> 100		> 100		> 100		> 100		> 100
Cc1c2ncccc2c(C)c2c1[nH]c1ccccc12		25.2 µM		22		35.3		17.3		26		27.8		21.9		41.4		26.7		28
CC(=O)O/C(C)=C\C(=O)O/N=C(\N)c1ccc(C)cc1		> 100 µM		> 100		41.5		43.1		48.4		> 100		> 100		72.3		> 100		> 100
Cn1cnc([N+](=O)[O-])c1Sc1ncnc2nc[nH]c12	8.55 µM and 26.1 µM	82 µM and > 100 µM	2.6 µM and 5.07 µM	> 100	3.64 µM and 5.1 µM	> 100	3.62 µM and 23.4 µM	> 100	4.01 µM and 13.3 µM	> 100	3.68 µM and > 26.6 µM	> 100	1.61 µM and 9.82 µM	> 100		> 100	61.4 µM and 84.4 µM	> 100	18.8 µM and 32.1 µM	> 100
O=Nc1c2cccnc2n2nnc3ccc(Cl)cc3c12	3.34 µM	10.3 µM	0.436 µM	2.35	0.0452 µM	2.76	0.316 µM	6.11	2.09 µM	10.2	3.74 µM	11.2	4.24 µM	16.2	3.6	13.3	5.5 µM	22	0.331 µM	1.33
CCCc1ccc(N=Cc2cc(OC)c(OC)c(OC)c2)cc1		> 100 µM		> 100		> 100		> 100		> 100		> 100		> 100		> 100		> 100		> 100
O=C1NC(=O)C(c2ccccc2Cl)=C1Nc1cccc(O)c1	6.49 µM	> 25 µM	4.41 µM	> 25	7.05 µM	> 25	7.51 µM	> 25	10.5 µM	> 25	24.6 µM	> 25	8.32 µM	> 25	1.99	> 25	21.4 µM	> 25	1.47 µM	> 25
C=C1C(=O)O[C@H]2[C@H]1CC/C(COC(=O)c1ccc(C(=O)O)s1)=C\CC[C@@]1(C)O[C@@H]21	7.5 µM	20.3 µM	1.71 µM	3.11	1.63 µM	8.66	0.715 µM	2.03	3.34 µM	11.8	2.69 µM	7.84	5.65 µM	18.7	2.29	5.22	3.17 µM	11.6	1.61 µM	3.79
